Tests used:
salivary alpha-amylase = salivary alpha-amylase level before and after a stress test (kinetic reaction assay kit); assay type: in vivo, human; conditions: Table 6; before vs immediately after ten minute stress test; about 10-15 panelists; DPG = +60.7%
Text: Salivary alpha-amylase is widely used as a biomarker for acute stress. The purpose of this study was to investigate the influence of individual fragrance compounds, particularly musk compounds, on a subject's salivary alpha-amylase levels before and after exposure to a stressor. The subject sniffed each musk compound, then was exposed to a stressor. The goal was to identify one or more specific musk compounds which caused the least amount of change in salivary alpha-amylase levels or decreased a subject's salivary alpha-amylase levels compared to before administration, thereby reducing or inhibiting a response to stress stimuli. […] The p values of the control as compared to each musk compound were calculated as follows: rosamusk (p=0.0366), habanolide (p=0.1163), ambrettolide (p=0.1397).
Twelve to fourteen female panelists age 30-45 participated in this study for each of the test materials. Stress was induced using a timed ten minute mathematical/word test in a small group competition setting. The musk material was introduced at intervals during the stress test.
Saliva was collected before and immediately after the stress test. Saliva samples were assayed for salivary alpha-amylase activity using a commercially available kinetic reaction assay kit (Salimetrics®, State College, Pa.).
(§1) Fourteen female panelists age 30-45 participated in this study. Stress was induced using a timed ten minute mathematical/word test in a small group competition setting. Fragrance was introduced at intervals during the stress test. Saliva was collected before (Pre) and immediately after (Post) the stress test. Saliva samples were assayed for salivary alpha-amylase using a commercially available kinetic reaction assay kit and for salivary cortisol using a highly sensitive enzyme immunoassay kit (Salimetrics®, State College, Pa.).
(§2) Stress was induced in a number of panelists (about 10-15) for each tested compound using a timed ten minute mathematical/word test in a small group competition setting. The test compound was introduced at intervals during the stress test.
(§3) Saliva was collected before and immediately after the stress test. Saliva samples were assayed for salivary cortisol levels and salivary alpha-amylase activity using a commercially available kinetic reaction assay kit (Salimetrics®, State College, Pa.).
(§4) Methodology for number of drops. Ten to twenty-four panelists age 30-45 participated in this study. The amount of fragrance tested was divided equally and applied onto 6 blotter cards each 3 by 5 inches in size. They were weighed and placed in the test room 30 minutes before the stress test to equilibrate.
(§5) Stress was induced using a timed ten-minute mathematical/word test in a small group competition setting. The blotter cards were removed and weighed again after the stress test. […]

salivary cortisol = salivary cortisol level before and after a stress test (enzyme immunoassay kit); assay type: in vivo, human; conditions: Table 6; before vs immediately after ten minute stress test; about 10-15 panelists; DPG = −10.9%
Text: Salivary cortisol is widely used as a biomarker for stress. The purpose of this study was to investigate the influence of individual fragrance compounds, particularly musk compounds, on a subject's cortisol levels before and after exposure to a stressor. The subject sniffed each musk compound, then was exposed to a stressor. The goal was to identify one or more specific musk compounds which caused the least amount of change in cortisol levels or decreased a subject's cortisol levels compared to before administration, thereby reducing or inhibiting a response to stress stimuli.
as §1, §2, §3, §4, §5

[1] = chassis-air partition coefficient, BC-162 shampoo chassis; assay type: physicochemical
Text: (§6) The chassis-air partition coefficient can be measured for materials in various chassis.
(§7) Ki,chassis-air is the chassis-air partition coefficient for component i in the fragrance formula
(§8) Ci, chassis is the concentration of component i in the product formula chassis in molarity, M
(§9) Ci, air is the concentration of component i in the headspace air in equilibrium with the formula chassis in molarity, M
(§10) For the “Example Accord” in the BC-162 shampoo chassis components, the log chassis-air partition coefficients are as listed in Table 11.

[2] = chassis-air partition coefficient, APDO soft solid chassis; assay type: physicochemical
Text: as §6, §7, §8, §9, §10

Compound: CC(=O)C(C)CC[C@H]1CCC(C)C1(C)C (stereo partly drawn) [3-methyl-5-((1R)-2,2,3-trimethylcyclopentyl)pentan-2-one]
- Salivary Amylase Data (change in salivary alpha-amylase) (salivary alpha-amylase): −6.1%

Compound: CC1=CCC(C/C=C(\C)CO)C1(C)C (stereo not drawn) [Hindinol ®, (E)-2-methyl-4-(2,2,3-trimethyl-1-cyclopent-3-enyl)but-2-en-1-ol]
- Salivary Amylase Data (change in salivary alpha-amylase) (salivary alpha-amylase): +82.3%
- Cortisol Data (change in salivary cortisol) (salivary cortisol): −25.0%

Compound: CC1CCCCCCCCCCCCC(=O)C1 [L-Muscone]
- Salivary Amylase Data (change in salivary alpha-amylase) (salivary alpha-amylase): +14.5%
- Cortisol Data (change in salivary cortisol) (salivary cortisol): +25.6%

Compound: CC(=O)c1cc2c(cc1C)C(C)(C)C(C)C2(C)C (stereo not drawn) [Phantolide, 1-(1,1,2,3,3,6-hexamethyl-2H-inden-5-yl)ethanone]
- Salivary Amylase Data (change in salivary alpha-amylase) (salivary alpha-amylase): −19.2%
- Cortisol Data (change in salivary cortisol) (salivary cortisol): −12.3%

Compound: C=C.CCCCCCCCCCCC(=O)O [ZENOLIDE, ethylene dodecanoate]
- logK, BC162 (log chassis-air partition coefficient) [1]: 6.131
- logK, APDO Soft Solid (log chassis-air partition coefficient) [2]: 6.966
